From ChEMBL document CHEMBL1201862, “PubChem BioAssay data set” (2004)
Calls of active or inactive are those of the source.

Columns and labels:
Cryptococcus neoformans = assay: PubChem AID 686997; type: functional, organism-based
HeLa = assay: viability loss in HeLa cells – cell-based, ATP luminescence, cherry-pick samples, cytotoxicity control, dose response (AID 687004); type: functional; details: Homo sapiens
Paired box protein Pax-8 = Paired box protein Pax-8 (Homo sapiens, UniProt Q06710); assay: PAX8 transcriptional activity inhibition in RMG-I – RMG-I cells, luciferase, cherry-pick, dose response (AID 687027); type: functional, cell-based;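 further: luciferase reporter driven by Pax8 target thyroperoxidase promoter measured by SteadyGlo luminescence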
[1] = OV-90 cell viability loss – plate reader, dry powder, SA8, PAX8 inhibitor project, dose response (AID 743149); type: functional, cell-based
[2] = PAX8-dependent cell viability loss – plate reader, dry powder, dose response (AID 743049); type: functional, cell-based
[3] = viability loss in mouse NIH3T3 cells – cell-based, CellTiter-Glo luminescence, dry powder, cytotoxicity control for PglD inhibitor project, dose response (AID 652044); type: functional
[4] = A2780 cell killing – plate reader, dry powder samples, cytotoxicity control, dose response (AID 743046); type: functional, cell-based
[5] = OVCAR-3 cell viability loss – plate reader, dry powder samples, PAX8 inhibitor project, dose response (AID 743044); type: functional, cell-based
[6] = IGROV1 cell killing – plate reader, dry powder samples, PAX8 inhibitor project, dose response (AID 743043); type: functional, cell-based; details: IGROV-1
[7] = general cell-killing toxicity readout – plate reader, dry powder samples, cytotoxicity control for PAX8 inhibitor project, dose response (AID 743021); type: functional, cell-based
[8] = A549 cell cytotoxicity, dose response, cytotoxicity control, plate reader, cherry-pick, antagonist series (AID 743412); type: functional, cell-based
[9] = inhibition of bursicon-driven LGR2 cAMP signaling – cell-based, HEK293, CRE-luciferase reporter, cherry pick, dose response (AID 743342); type: functional
[10] = inhibitors of non-replicating M. tuberculosis, dose response, luciferase, dry powder (AID 651619); type: functional; details: Mycobacterium tuberculosis
[11] = inhibitors of non-replicating M. tuberculosis, dose response, luciferase, dry powder (AID 651620); type: functional; details: Mycobacterium tuberculosis
[12] = growth inhibition of replicating M. tuberculosis, dose response, counter-screen, dry powder, IC90 (AID 651617); type: functional; details: Mycobacterium tuberculosis
Protein Wnt-3a = Protein Wnt-3a (Mus musculus, UniProt P27467); assay: SAR analysis of small molecule antagonists of Gli-SUFU in a Wnt3a luminescent reporter assay.; type: functional
[13] = target: Kappa-type opioid receptor (Homo sapiens, UniProt P41145); assay: Late-stage fluorescence-based cell-based dose response assay for antagonists of kappa opioid receptor 1 (OPRK1).; type: functional
Mu-type opioid receptor = Mu-type opioid receptor (Homo sapiens, UniProt P35372); assay: Late-stage results from the probe development effort to identify antagonists of OPRK1: luminescence-based cell-based dose response OPRM1 counterscreen, Set 2.; type: functional
[14] = target: Delta-type opioid receptor (Homo sapiens, UniProt P41143); assay: Late-stage results from the probe development effort to identify antagonists of OPRK1: fluorescence-based cell-based dose response OPRD1 counterscreen, Set 2.; type: functional
[15] = target: Sphingosine 1-phosphate receptor 1 (Homo sapiens, UniProt P21453); assay: Late-stage counterscreen for antagonists of kappa opioid receptor 1 (OPRK1): fluorescence-based cell-based dose response assay to identify antagonists of Sphingosine 1-Phosphate Receptor 1 (S1P1).; type: functional
[16] = target: Potassium channel subfamily K member 9 (Homo sapiens, UniProt Q9NPC2); assay: KCNK9 flux blockade, concentration-response – cell-based, FluxOR thallium flux, selectivity assay for TASK1 inhibitor project, SAR follow-up (AID 652211); type: functional;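 further: potency is for inhibitors of the channel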
[17] = target: Potassium channel subfamily K member 3 (Homo sapiens, UniProt O14649); assay: inhibition of human KCNK3 channel flux – CHO cells, FluxOR thallium flux, SAR follow-up (AID 652212); type: functional
Albumin = Albumin (Bos taurus, UniProt P02769); assay: Counterscreen for inhibitors of T-cell receptor (TCR)-CD3 interaction: Fluorescence-based biochemical high throughput dose response assay to identify inhibitors of T-cell receptor (TCR)-CD3 interaction using a TAMRA-labeled BSA probe.; type: functional
Chain of Albumin (P02769 whole entry): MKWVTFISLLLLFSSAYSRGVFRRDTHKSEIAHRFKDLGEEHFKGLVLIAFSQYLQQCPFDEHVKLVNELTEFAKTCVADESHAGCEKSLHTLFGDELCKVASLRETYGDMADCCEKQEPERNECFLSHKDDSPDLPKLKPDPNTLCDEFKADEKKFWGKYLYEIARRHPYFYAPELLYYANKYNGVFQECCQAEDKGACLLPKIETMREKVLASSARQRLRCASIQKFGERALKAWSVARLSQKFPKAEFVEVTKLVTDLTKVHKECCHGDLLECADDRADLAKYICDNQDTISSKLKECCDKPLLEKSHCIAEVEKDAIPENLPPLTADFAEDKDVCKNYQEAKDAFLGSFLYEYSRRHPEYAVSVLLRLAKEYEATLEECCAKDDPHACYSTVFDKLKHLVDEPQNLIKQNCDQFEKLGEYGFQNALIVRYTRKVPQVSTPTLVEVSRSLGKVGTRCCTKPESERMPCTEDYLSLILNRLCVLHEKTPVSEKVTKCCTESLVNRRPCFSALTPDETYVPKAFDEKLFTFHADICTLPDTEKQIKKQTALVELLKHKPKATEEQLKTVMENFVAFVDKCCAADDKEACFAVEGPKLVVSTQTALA

Chain of Paired box protein Pax-8 (Q06710 whole entry): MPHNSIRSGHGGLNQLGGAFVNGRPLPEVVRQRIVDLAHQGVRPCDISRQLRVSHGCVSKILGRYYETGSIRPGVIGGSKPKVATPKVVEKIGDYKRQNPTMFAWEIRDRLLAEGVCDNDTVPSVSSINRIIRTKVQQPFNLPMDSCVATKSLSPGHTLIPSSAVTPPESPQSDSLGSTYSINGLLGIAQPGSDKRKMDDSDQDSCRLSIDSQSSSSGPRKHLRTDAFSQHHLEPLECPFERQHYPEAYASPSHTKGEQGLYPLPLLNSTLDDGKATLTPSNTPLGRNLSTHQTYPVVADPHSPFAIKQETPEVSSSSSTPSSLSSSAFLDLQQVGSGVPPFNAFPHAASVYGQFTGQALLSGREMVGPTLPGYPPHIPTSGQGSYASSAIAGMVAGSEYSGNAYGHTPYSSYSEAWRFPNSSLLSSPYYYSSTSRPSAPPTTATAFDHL
Chain of Mu-type opioid receptor (P35372 whole entry): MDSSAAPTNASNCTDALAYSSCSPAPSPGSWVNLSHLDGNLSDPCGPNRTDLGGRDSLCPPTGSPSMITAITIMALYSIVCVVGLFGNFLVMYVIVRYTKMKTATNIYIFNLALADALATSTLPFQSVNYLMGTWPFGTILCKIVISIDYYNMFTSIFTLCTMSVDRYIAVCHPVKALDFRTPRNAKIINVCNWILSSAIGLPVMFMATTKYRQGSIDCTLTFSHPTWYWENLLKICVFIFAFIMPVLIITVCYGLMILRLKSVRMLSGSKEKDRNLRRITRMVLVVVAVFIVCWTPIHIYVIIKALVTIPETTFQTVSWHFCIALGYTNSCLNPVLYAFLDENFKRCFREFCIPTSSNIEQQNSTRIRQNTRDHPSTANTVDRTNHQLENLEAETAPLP
Chain of Potassium channel subfamily K member 9 (Q9NPC2 whole entry): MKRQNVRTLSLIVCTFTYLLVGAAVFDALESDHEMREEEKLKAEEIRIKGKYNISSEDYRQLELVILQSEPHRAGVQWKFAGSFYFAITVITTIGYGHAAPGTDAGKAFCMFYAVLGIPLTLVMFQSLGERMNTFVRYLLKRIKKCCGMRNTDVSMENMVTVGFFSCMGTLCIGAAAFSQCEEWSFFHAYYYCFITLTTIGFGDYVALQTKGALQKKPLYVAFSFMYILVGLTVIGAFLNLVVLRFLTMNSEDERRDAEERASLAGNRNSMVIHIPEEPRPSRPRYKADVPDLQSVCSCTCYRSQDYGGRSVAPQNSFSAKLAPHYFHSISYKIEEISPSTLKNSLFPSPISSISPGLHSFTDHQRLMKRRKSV
Chain of Sphingosine 1-phosphate receptor 1 (P21453 whole entry): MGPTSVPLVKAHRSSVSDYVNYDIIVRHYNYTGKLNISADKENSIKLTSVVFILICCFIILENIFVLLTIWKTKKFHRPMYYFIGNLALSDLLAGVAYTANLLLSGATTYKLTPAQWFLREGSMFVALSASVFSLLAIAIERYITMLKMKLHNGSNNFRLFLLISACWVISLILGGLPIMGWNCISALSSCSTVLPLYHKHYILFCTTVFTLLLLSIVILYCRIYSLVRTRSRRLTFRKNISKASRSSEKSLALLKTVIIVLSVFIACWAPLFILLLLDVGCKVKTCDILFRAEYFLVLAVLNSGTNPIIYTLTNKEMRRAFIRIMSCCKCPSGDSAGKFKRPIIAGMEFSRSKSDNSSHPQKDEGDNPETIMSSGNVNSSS
Chain of Kappa-type opioid receptor (P41145 whole entry): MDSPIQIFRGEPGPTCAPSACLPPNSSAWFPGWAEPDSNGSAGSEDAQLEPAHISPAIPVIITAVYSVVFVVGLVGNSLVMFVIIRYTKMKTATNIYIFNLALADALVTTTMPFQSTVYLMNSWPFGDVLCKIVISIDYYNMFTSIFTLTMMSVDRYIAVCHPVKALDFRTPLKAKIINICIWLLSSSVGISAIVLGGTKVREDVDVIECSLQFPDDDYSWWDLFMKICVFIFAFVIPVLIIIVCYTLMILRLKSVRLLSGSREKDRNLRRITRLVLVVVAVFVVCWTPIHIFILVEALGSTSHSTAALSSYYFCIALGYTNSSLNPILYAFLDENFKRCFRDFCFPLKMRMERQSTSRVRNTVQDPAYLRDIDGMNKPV
Chain of Protein Wnt-3a (P27467 whole entry): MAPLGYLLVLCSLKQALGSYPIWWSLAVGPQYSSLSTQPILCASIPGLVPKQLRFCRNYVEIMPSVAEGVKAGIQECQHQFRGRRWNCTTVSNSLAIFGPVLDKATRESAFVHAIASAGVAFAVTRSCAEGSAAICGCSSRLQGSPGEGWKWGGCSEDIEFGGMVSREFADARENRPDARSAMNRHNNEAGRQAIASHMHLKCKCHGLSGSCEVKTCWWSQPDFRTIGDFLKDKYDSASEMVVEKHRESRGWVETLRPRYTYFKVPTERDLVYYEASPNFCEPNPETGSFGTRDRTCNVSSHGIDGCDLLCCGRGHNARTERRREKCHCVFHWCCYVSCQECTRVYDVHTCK
Chain of Potassium channel subfamily K member 3 (O14649 whole entry): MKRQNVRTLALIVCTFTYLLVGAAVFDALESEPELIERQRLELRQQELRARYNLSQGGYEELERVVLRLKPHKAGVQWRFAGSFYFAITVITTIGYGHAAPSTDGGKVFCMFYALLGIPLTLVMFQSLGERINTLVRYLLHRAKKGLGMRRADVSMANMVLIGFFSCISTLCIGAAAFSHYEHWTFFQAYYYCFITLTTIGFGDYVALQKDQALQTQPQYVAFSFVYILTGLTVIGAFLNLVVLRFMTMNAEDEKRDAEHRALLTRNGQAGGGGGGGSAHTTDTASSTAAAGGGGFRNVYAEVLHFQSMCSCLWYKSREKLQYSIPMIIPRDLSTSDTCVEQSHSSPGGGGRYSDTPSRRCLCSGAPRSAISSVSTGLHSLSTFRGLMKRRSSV
Chain of Delta-type opioid receptor (P41143 whole entry): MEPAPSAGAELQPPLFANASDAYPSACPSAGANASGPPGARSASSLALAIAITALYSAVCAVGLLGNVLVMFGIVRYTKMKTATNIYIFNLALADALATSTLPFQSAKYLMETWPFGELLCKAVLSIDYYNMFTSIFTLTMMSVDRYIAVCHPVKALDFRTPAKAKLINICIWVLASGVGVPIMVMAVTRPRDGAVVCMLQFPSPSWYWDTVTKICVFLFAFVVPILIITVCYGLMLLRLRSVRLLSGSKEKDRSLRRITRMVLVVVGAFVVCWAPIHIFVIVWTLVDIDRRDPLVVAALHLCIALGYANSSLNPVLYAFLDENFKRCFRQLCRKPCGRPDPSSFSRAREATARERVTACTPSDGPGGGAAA

COC(=O)C1=C(C)N(CC(C)C)C(=S)NC1c1ccc(Cl)cc1 (stereo not given)
AC50 (Cryptococcus neoformans): 24 µM (active) | AC50 (Cryptococcus neoformans; Cryptococcus neoformans): 36.5 µM (active) | AC50 (HeLa): > 60 µM (inactive)

C[C@H]1CN([C@@H](C)CO)C(=O)CCCn2nncc2CO[C@@H]1CN(C)C(=O)Nc1ccc(-c2cccs2)cc1
AC50 (Paired box protein Pax-8): 0.48 µM (active) | AC50 [1]: > 70 µM (inactive) | AC50 [2]: 7.43 µM (active)

COc1ccc(C#Cc2cnc3c(c2)C(=O)N([C@@H](C)CO)C[C@H](C)[C@H](CN(C)CC2CCCC2)O3)cc1
AC50 [3]: 25.2 µM (active)

COc1ccc(NC(=O)N2CC(=O)N3[C@H](C2)[C@H](c2ccc(/C=C/c4ccccc4)cc2)[C@@H]3CO)cc1
AC50 (Paired box protein Pax-8): 5.72 µM (active) | AC50 [4]: 26 µM (active) | AC50 [5]: 12.4 µM (active) | AC50 [6]: 30.6 µM (active) | AC50 [7]: 23.2 µM (active)

C[C@H](CO)N1C[C@H](C)[C@H](CN(C)C(=O)Nc2ccccc2)OCCCC[C@H](C)Oc2ccc(NC(=O)Nc3ccccc3)cc2C1=O
AC50 [8]: > 52 µM (inactive) | AC50 [9]: 16.9 µM (active)

Fc1cccc(-c2nnc(SCc3ccccn3)o2)c1
IC90 [10]: 4 µM (active) | IC90 [11]: 4 µM (active) | IC90 [12]: 125 µM (active)

Cc1nc(NC(=O)c2ccccc2)cc(N(C)C)n1
IC50 (Protein Wnt-3a): > 21.8 µM (inactive)

O=C(c1cnn(-c2ccc(Cl)cc2)c1C(F)(F)F)N1CCN(c2ncnc3ccsc23)CC1
IC50 [13]: 1.05 µM (active) | IC50 (Mu-type opioid receptor): > 50 µM (inactive) | IC50 [14]: > 50 µM (inactive) | IC50 [15]: > 50 µM (inactive)

COc1ccccc1NC(=O)c1cccc(NC(=O)c2ccccc2)c1
IC50 [16]: 1.41 µM (active) | IC50 [17]: 0.064 µM (active)

O=c1c2c(-c3ccc(Cl)cc3)csc2ncn1/N=C/c1cccc([N+](=O)[O-])c1O
IC50 (Albumin): > 94.1 µM (inactive)
